Measured values published in patent US20230279016A1, “Tetrahydropyrazolopyrimidines and Related Analogs for Inhibiting YAP/TAZ-TEAD” (THE KATHOLIEKE UNIVERSITEIT LEUVEN, priority 2021, published 2023).

Key:
Format in all cases: cell-based
[1] = tested on: NCI-H226 mesothelioma cell line; assay: Mesothelioma cell line proliferation assay, NCI-H226; conditions: NCI-H226, 6 days with compound, cell viability by ATPlite
Experimental: (§1) Mesothelioma cell lines, NCI-H226 and NCI-H2052 (all sourced from the ATCC cell culture collection) are plated in 96-well plates (Corning® 96 Well White Polystyrene Microplate clear flat bottom, white polystyrene (TC-Treated)), at 1500 cells/well in full medium (RPMI 1640 ATCC modification with L-glutamine, HEPES, Phenol Red, Sodium Pyruvate, High glucose, Low sodium bicarbonate and 10% fetal bovine serum). Cells are incubated overnight at 37° C. in an incubator with 5% CO2. Then compounds, dissolved in DMSO, are added in dose-response. Cells are incubated with compound dilutions for another 6 days at 37° C. in an incubator with 5% CO2. Cell viability is quantitated using the ATPlite kit (Perkin-Elmer) and the luminescence is read-out using an Envision instrument (Perkin-Elmer). The amount of relative light units produced using the ATPlite kit is used to calculated percent of inhibition.
(§2) The activities of example compounds tested are depicted in the table below. The activity ranges A, B and C refer to EC50 values in the mesothelioma cell line proliferation assay as described as follows: “A”: EC50 <1 μM; “B” : 1 μM EC50 ≤10 μM and “C” : EC50 >10 μM. NT: not tested.

[2] = tested on: YAP/TAZ-TEAD transcription; assay: Reporter gene assay for measuring the inhibition of YAP/TAZ-TEAD transcription (TEAD-responsive element luciferase reporter in Hek293T cells); conditions: Hek293T cells transiently transfected with TEAD-responsive element luciferase reporter, 24 hours incubation
In short: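 Hek293T cells transiently transfected with TEAD-responsive luciferase reporter, exposed to compound for 24 h at 37° C/5% CO2, then read by luminescence. Percent inhibition normalized to vehicle (0%) and positive control inhibitor (100%); EC50 reported as activity ranges.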

[3] = tested on: NCI-H2052 mesothelioma cell line; assay: Mesothelioma cell line proliferation assay, NCI-H2052; conditions: NCI-H2052, 6 days with compound, cell viability by ATPlite
Experimental: as §1, §2

Row | Compound | EC50 [3] | EC50 ([1]; Homo sapiens, NCI-H226, 144 h) | EC50 ([2]; Homo sapiens, HEK-293T, 24 h) | EC50 ([3]; Homo sapiens, NCI-H2052, 144 h) | EC50 [1] | EC50 [2]
1 | C=CC(=O)NCC1CN(c2ccc(C3CC3)cc2)c2ccnn2C1 (single isomer, unassigned) [Cpd. No. 022-En2, (R)- or (S)-N-((4-(4-cyclopropylphenyl)-4,5,6,7-tetrahydropyrazolo[1,5-a]pyrimidin-6-yl)methyl)acrylamide] | > 10000 nM |  |  |  | < 1000 nM | < 1000 nM
2 | C=CC(=O)NCC1CN(c2ccc(S(F)(F)(F)(F)F)cc2)c2ccnn2C1 (single isomer, unassigned) [Cpd. No. 023-En1, (R)- or (S)-N-((4-(4-(pentafluoro-l6-sulfaneyl)phenyl)-4,5,6,7-tetrahydropyrazolo[1,5-a]pyrimidin-6-yl)methyl)acrylamide] | < 1000 nM |  |  |  | < 1000 nM | < 1000 nM
3 | C=CC(=O)NCC1CN(c2ccc(S(F)(F)(F)(F)F)cc2)c2ccnn2C1 (single isomer, unassigned) [Cpd. No. 023-En2, (R)- or (S)-N-((4-(4-(pentafluoro-l6-sulfaneyl)phenyl)-4,5,6,7-tetrahydropyrazolo[1,5-a]pyrimidin-6-yl)methyl)acrylamide] | < 1000 nM |  |  |  | < 1000 nM | < 1000 nM
4 | C=CC(=O)NC[C@@H]1CN(Cc2ccccc2)c2ccnn2C1 (single isomer, unassigned) [Cpd. No. 049-En1, (R)- or (S)-((4-benzyl-4,5,6,7-tetrahydropyrazolo[1,5-a]pyrimidin-6-yl)methyl)acrylamide] | 1000 to 10000 nM |  |  |  | 1000 to 10000 nM | > 20000 nM
5 | C=CC(=O)NC1CN(c2ccc(C(F)(F)F)cc2F)c2ccnn2C1 (single isomer, unassigned) [Cpd. No. 065-En1, (R)- or (S)-N-(4-(2-fluoro-4-(trifluoromethyl)phenyl)-4,5,6,7-tetrahydropyrazolo[1,5-a]pyrimidin-6-yl)acrylamide] |  | < 1000 nM | < 1000 nM | < 1000 nM |  | 
6 | C=CC(=O)NCC1Cc2c(cnn2C(F)F)N(c2ccc(C(F)(F)F)cc2)C1 (single isomer, unassigned) [Cpd. No. 084-En1, (R)- or (S)-N-((1-(difluoromethyl)-4-(4-(trifluoromethyl)phenyl)-4,5,6,7-tetrahydro-1H-pyrazolo[4,3-b]pyridin-6-yl)methyl)acrylamide] |  | < 1000 nM | < 1000 nM | < 1000 nM |  | 
7 | C=CC(=O)NCC1Cc2c(cnn2C(F)F)N(c2ccc(C(F)(F)F)cc2)C1 (single isomer, unassigned) [Cpd. No. 084-En2, (R)- or (S)-N-((1-(difluoromethyl)-4-(4-(trifluoromethyl)phenyl)-4,5,6,7-tetrahydro-1H-pyrazolo[4,3-b]pyridin-6-yl)methyl)acrylamide] | < 1000 nM |  |  |  | < 1000 nM | < 1000 nM
8 | C=CC(=O)NC[C@H]1Cc2nn(C(F)F)cc2N(c2ccc(C(F)(F)F)cc2)C1 (single isomer, unassigned) [Cpd. No. 085-En1, (R)- or (S)-N-(2-(difluoromethyl)-4-(4-(trifluoromethyl)phenyl)-4,5,6,7-tetrahydro-2H-pyrazolo[4,3-b]pyridin-6-yl)methyl)acrylamide] | < 1000 nM |  |  |  | < 1000 nM | < 1000 nM
9 | C=CC(=O)NCC1Cc2nn(C(F)F)cc2N(c2ccc(C(F)(F)F)cc2)C1 (single isomer, unassigned) [Cpd. No. 085-En2, (R)- or (S)-N-((2-(difluoromethyl)-4-(4-(trifluoromethyl)phenyl)-4,5,6,7-tetrahydro-2H-pyrazolo[4,3-b]pyridin-6-yl)methyl)acrylamide] |  | < 1000 nM | < 1000 nM | < 1000 nM |  | 
10 | FC(F)(F)c1ccc(N2CC(C3CC(Br)=NO3)Cn3nccc32)cc1 (single isomer, unassigned) [Cpd. No. 086-Dia1, 3-bromo-5-(4-(4-(trifluoromethyl)phenyl)-4,5,6,7-tetrahydropyrazolo[1,5-a]pyrimidin-6-yl)-4,5-dihydroisoxazole] |  | < 1000 nM | < 1000 nM | < 1000 nM |  | 
11 | FC(F)(F)c1ccc(N2CC(C3CC(Br)=NO3)Cn3nccc32)cc1 (single isomer, unassigned) [Cpd. No. 086-Dia2, 3-bromo-5-(4-(4-(trifluoromethyl)phenyl)-4,5,6,7-tetrahydropyrazolo[1,5-a]pyrimidin-6-yl)-4,5-dihydroisoxazole] | < 1000 nM |  |  |  | < 1000 nM | < 1000 nM
12 | C=CC(=O)NCC1CN(c2ccc(C(C)C)cc2)c2ccnn2C1 (stereo not drawn) [Cpd. No. 013, N-((4-(4-isopropylphenyl)-4,5,6,7-tetrahydropyrazolo[1,5-a]pyrimidin-6-yl)methyl)acrylamide] |  | < 1000 nM | < 1000 nM | < 1000 nM |  | 
13 | CS(=O)(=O)NCC1CN(c2ccc(C(F)(F)F)cc2)c2ccnn2C1 (stereo not drawn) [Cpd. No. 027, N-((4-(4-(trifluoromethyl)phenyl)-4,5,6,7-tetrahydropyrazolo[1,5-a]pyrimidin-6-yl)methyl)methanesulfonamide] |  | > 10000 nM | > 20000 nM | > 10000 nM |  | 
14 | C=CC(=O)NCC1CN(c2ccc(C(F)(F)F)cc2)c2cc(C)nn2C1 (stereo not drawn) [Cpd. No. 029, N-((2-methyl-4-(4-(trifluoromethyl)phenyl)-4,5,6,7-tetrahydropyrazolo[1,5-a]pyrimidin-6-yl)methyl)acrylamide] |  | < 1000 nM | < 1000 nM | < 1000 nM |  | 
15 | C=CC(=O)NCC1CN(c2ccc(C(F)(F)F)cc2)c2cc(C3CC3)nn2C1 (stereo not drawn) [Cpd. No. 031, N-((2-cyclopropyl-4-(4-(trifluoromethyl)phenyl)-4,5,6,7-tetrahydropyrazolo[1,5-a]pyrimidin-6-yl)methyl)acrylamide] |  | < 1000 nM | < 1000 nM | < 1000 nM |  | 
16 | C=CC(=O)NCC1CN(c2ccc(C(F)(F)F)cc2)c2cc(CC3CC3)nn2C1 (stereo not drawn) [Cpd. No. 032, N-((2-(cyclopropylmethyl)-4-(4-(trifluoromethyl)phenyl)-4,5,6,7-tetrahydropyrazolo[1,5-a]pyrimidin-6-yl)methyl)acrylamide] |  | < 1000 nM | < 1000 nM | < 1000 nM |  | 
17 | C=CC(=O)NCC1CN(c2ccc(C(F)(F)F)cc2)c2cc(C(F)(F)F)nn2C1 (stereo not drawn) [Cpd. No. 034, N-((2-(trifluoromethyl)-4-(4-(trifluoromethyl)phenyl)-4,5,6,7-tetrahydropyrazolo[1,5-a]pyrimidin-6-yl)methyl)acrylamide] |  | < 1000 nM | < 1000 nM | < 1000 nM |  | 

Second part, led by results:

Row | EC50 [3] | EC50 ([1]; Homo sapiens, NCI-H226, 144 h) | EC50 ([2]; Homo sapiens, HEK-293T, 24 h) | EC50 ([3]; Homo sapiens, NCI-H2052, 144 h) | Compound | EC50 [1] | EC50 [2]
18 |  | < 1000 nM | < 1000 nM | < 1000 nM | C=CC(=O)NCC1CN(c2ccc(C(F)(F)F)cc2)c2ccnn2C1 (stereo not drawn) [Cpd. No. 002, N-((4-(4-(trifluoromethyl)phenyl)-4,5,6,7-tetrahydropyrazolo[1,5-a]pyrimidin-6-yl)methyl)acrylamide] |  | 
19 |  | < 1000 nM | < 1000 nM | < 1000 nM | C=CC(=O)NCC1CN(c2ccc(Cl)cc2)c2ccnn2C1 (stereo not drawn) [Cpd. No. 005, N-((4-(4-chlorophenyl)-4,5,6,7-tetrahydropyrazolo[1,5-a]pyrimidin-6-yl)methyl)acrylamide] |  | 
20 |  | > 10000 nM | < 1000 nM | > 10000 nM | C=CC(=O)NCC1CN(c2ccc(C(F)(F)F)nc2)c2ccnn2C1 (stereo not drawn) [Cpd. No. 007, N-((4-(6-(trifluoromethyl)pyridin-3-yl)-4,5,6,7-tetrahydropyrazolo[1,5-a]pyrimidin-6-yl)methyl)acrylamide] |  | 
21 | < 1000 nM | < 1000 nM | < 1000 nM |  | C=CC(=O)NCC1CN(c2ccc(OC(F)(F)F)cc2)c2ccnn2C1 (stereo not drawn) [Cpd. No. 011, N-((4-(4-(trifluoromethoxy)phenyl)-4,5,6,7-tetrahydropyrazolo[1,5-a]pyrimidin-6-yl)methyl)acrylamide] |  | 
22 | < 1000 nM | < 1000 nM | < 1000 nM |  | C=CC(=O)NCC1CN(c2ccc(OC(F)F)cc2)c2ccnn2C1 (stereo not drawn) [Cpd. No. 012, N-((4-(4-(difluoromethoxy)phenyl)-4,5,6,7-tetrahydropyrazolo[1,5-a]pyrimidin-6-yl)methyl)acrylamide] |  | 
23 |  | < 1000 nM | < 1000 nM | < 1000 nM | C=CC(=O)NCC1CN(c2ccc(C(F)(F)F)c(F)c2)c2ccnn2C1 (stereo not drawn) [Cpd. No. 015, N-((4-(3-fluoro-4-(trifluoromethyl)phenyl)-4,5,6,7-tetrahydropyrazolo[1,5-a]pyrimidin-6-yl)methyl)acrylamide] |  | 
24 | < 1000 nM | < 1000 nM | < 1000 nM |  | C=CC(=O)NCC1CN(c2ccc(C(F)(F)F)cc2F)c2ccnn2C1 (stereo not drawn) [Cpd. No. 016, N-((4-(2-fluoro-4-(trifluoromethyl)phenyl)-4,5,6,7-tetrahydropyrazolo[1,5-a]pyrimidin-6-yl)methyl)acrylamide] |  | 
